# Test results: patent US20100197601A1, “USE OF A FIBRINOGEN RECEPTOR ANTAGONIST AND/OR FOLLICULAR GONADOTROPIN RELEASING PEPTIDE AS A THERAPEUTIC AGENT IN THE TREATMENT OF STREPTOCOCCUS PNEUMONIA INFECTION” (priority 2007, published 2010)
# Primed or numbered codes have the meaning given here. Where no end group is shown, it is not given here. [ ]: non-standard residue; d: D form. Pen′ = not defined here
# What was measured:
# [1] = system: HIV-1IIIB; test: HIV-1 antiviral assay in CEM-SS cells
# [2] = system: murine spleen cells restimulated with Ovalbumin; test: Th1/Th2 cytokine profiling assay; format: cell-based, Balb/c mice; conditions: 10 micrograms per ml
# [3] = system: HUVEC; test: Endothelial tube formation assay; format: cell-based, human; conditions: 10 micrograms per ml, 20 hours
# Procedure: The endothelial tube formation assay is based on the ability of endothelial cells to form three-dimensional capillary-like tubular structures when cultured on a gel of basement membrane extract. The endothelial tube formation assay represents a powerful model for studying inhibition and induction of angiogenesis. Pre-labeled HUVEC with Calcein AM were seeded in a 96-well culture plate coated with extracellular metrix (Chemicon international Cat. ECM625) and treated with test peptides—10 micrograms per ml—in full growth medium. Positive control wes vehicle only. The endothelial cells were allowed to form tubes foe 20 hours and were then examined under an inverted fluorescent microscope. Duplicate wells for each treatment were photographed and quantitatively analyzed for an average tubule length using image analysis software ImageProPlus. Raw data were expressed as average tubule lengths in pixels±standard deviation. Statistic p values were computed using the Student's t-test.
# [4] = system: hepatitis B virus (HBV) ayw strain; test: HBV experimental assay system, HepG2-2.2.15; format: cell-based; conditions: 10 micrograms per ml, six days, HBV DNA by TaqMan PCR, combination 0.95 mole peptide 1 and 1.05 mole peptide 2
# [5] = system: Streptococcus pneumoniae; test: Streptococcus pneumoniae assay; format: cell-based; conditions: 10 micrograms per ml; 5x10^5 CFU/mL; read visually; combination for instance 0.95 mole peptide 1 and 1.05 mole peptide 2
# [6] = system: Primary Human endothelial cells (HUVEC); test: Endothelial cell migration assay; format: cell-based; conditions: 10 micrograms per ml, 22 hours, combination peptide 1:peptide 2 1.10 mole:0.90 mole
# [7] = system: HCMV strain AD169; test: HCMV plaque formation assay in MRC-5 cells; format: cell-based; conditions: for inhibition of HCMV plaque formation as compared to the virus control experiment: 10 micrograms per ml, 7-10 days
# [8] = combination 0.95 mole peptide 1 and 1.05 mole peptide 2
molecule,measurement,setting,value
CC(C)(C)NC(=O)[C@@H]1CN(Cc2cccnc2)CCN1C[C@@H](O)C[C@@H](Cc1ccccc1)C(=O)N[C@H]1c2ccccc2C[C@H]1O [indinavir],antiviral activity of positive control compounds (HIV-1),[1],expected levels of antiviral activity
Cc1cn([C@H]2C[C@H](N=[N+]=[N-])[C@@H](CO)O2)c(=O)[nH]c1=O [AZT],antiviral activity of positive control compounds (HIV-1),[1],expected levels of antiviral activity
Ac-Pen-Arg-Gly-Asp-Cys-OH (Ac-[Pen′]RGDC-OH; reading uncertain; also: printed as Ac-Pen-Arg-Gly-Asp-Cys-OH) [Peptide 1],"production of IL-4, decreased by",[2]; 72 hours,44%
same,"production of IL-5, decreased by",[2]; 72 hours,26.5%
same,"production of TNF-alpha, induced by",[2]; 72 hours,30.0%
same,change of the production of IFN-y,[2]; [8],did not significantly change
same,change of the production of IL-2,[2]; [8],did not significantly change
same,inhibition of the tube formation of human endothelial cells,[3]; combination peptide 1:peptide 2 1.10 mole:0.90 mole,26%
same,inhibition of HBV replication as compared to the virus control infection,[4],no effect
same,inhibition of the growth of Streptococcus pneumoniae,[5],100%
same,inhibition of the migration of human endothelial cells,[6],4%
same,inhibition of HCMV plaque formation as compared to the virus control experiment,[7],did not inhibit
Thr-Asp-Thr-Ser-His-His-Asp-Gln-Asp-His-Pro-Thr-Phe-Asn-OH (TDTSHHDQDHPTFN-OH) [Peptide 2],"production of IFN-y, induced by",[2]; 72 hours,23.4%
same,"production of IL-4, induced by",[2]; 72 hours,29%
same,"production of TNF-alpha, induced by",[2]; 72 hours,34%
same,change of the production of IL-2,[2]; [8],did not significantly change
same,change of the production of IL-5,[2]; [8],did not significantly change
same,increase of the tube formation of endothelial cells,[3],11%
same,inhibition of the growth of Streptococcus pneumoniae,[5],100%
same,inhibition of the migration of human endothelial cells,[6],8%
same,inhibition of HCMV plaque formation as compared to the virus control experiment,[7],did not inhibit
"Nc1nc(O)c2ncn(COC(CO)CO)c2n1 [Ganciclovir, reference compound]",antiviral activity of positive control compound (HCMV),[7]; positive control,expected levels of antiviral activity
